Patent US7169773B2, “Compounds” (SmithKline Beecham Corporation, priority 2004, dated 2007)

How the values were obtained:
human MC4R = human MC4R (Homo sapiens, UniProt P32245); assay: Reporter Gene Assay (CHO-6×CRE-luc+ reporter cell lines, luciferase); type: cell-based; conditions: for Emax: 4 h, read-out: % of MSH; for Emax / % of MSH: percentage of the fold stimulation in the NDP-αMSH control (1×10^−7 M NDP-αMSH), CHO-6×CRE-luc+ cells, human MC4R; for EC50: CHO-6×CRE-luc+ reporter cells expressing human MC4R, 4 h at 37° C., luciferase activity
Chain of human MC4R (P32245 whole entry): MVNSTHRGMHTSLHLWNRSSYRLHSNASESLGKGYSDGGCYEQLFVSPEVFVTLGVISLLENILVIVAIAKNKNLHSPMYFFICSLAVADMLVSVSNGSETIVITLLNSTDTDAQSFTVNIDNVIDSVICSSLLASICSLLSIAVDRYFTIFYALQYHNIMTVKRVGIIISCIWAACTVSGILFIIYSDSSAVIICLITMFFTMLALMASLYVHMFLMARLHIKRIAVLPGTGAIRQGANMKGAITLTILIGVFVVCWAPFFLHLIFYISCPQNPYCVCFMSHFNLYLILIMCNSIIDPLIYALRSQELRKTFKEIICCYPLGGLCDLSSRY
Method: Reporter Gene Assay CHO-6×CRE-luc^+ reporter cell lines expressing human MC1R, MC3R, MC4R, and MC5R (GenBank accession numbers X65634, LO6155, S77415 and U08353) and the CHO host reporter gene cell line were propagated in complete medium in T225 flasks. Forty-eight hours prior to assay, cells were harvested with 2 ml of 0.05% trypsin, washed with complete medium and plated at a concentration of 4000 cells/well in complete medium. Sixteen hours prior to the assay, the medium was removed from the cells and replaced with 90 μl/well of serum-free DMEM/F12. At the time of the assay the compounds were added in a 10 μl volume and plates were incubated for 4 h at 37° C. in a cell culture incubator. The medium was aspirated followed by the addition of 50 μl of a 1:1 mixture of LucLiteTM and dPBS containing 1 mM CaCl2 and 1 mM MgCl2. The plates were then sealed and subjected to dark adaptation at room temperature for 10 min before luciferase activity was quantitated on a TopCountTM microplate scintillation counter (Packard) using 3 s/well count time. The NDP-αMSH and […]-5 concentration-response curve data were expressed as a percentage of the fold stimulation in the NDP-αMSH control for each receptor subtype. The control value is the average of duplicate wells treated with 1×10^-7 M NDP-αMSH.

Question: For `O=C(CN1C(=O)C(Cc2n[nH]c3ccccc23)C(=O)N(c2ccccc2)c2ccccc21)N1CCCCc2ccccc21` (racemic) [Example 1, 3-(1H-indazol-3-ylmethyl)-1-[2-oxo-2-(2,3,4,5-tetrahydro-1H-1-benzazepin-1-yl)ethyl]-5-phenyl-1H-1,5-benzodiazepine-2,4(3H,5H)-dione], which Emax (human MC4R) is on record?
Answer: 60%

Question: And the EC50 (human MC4R)?
Answer: 309 nM

Question: For `Cc1cc(C)c2c(c1)N(C(=O)CN1C(=O)C(Cc3n[nH]c4ccccc34)C(=O)N(c3ccccc3)c3ccccc31)CCCC2` (racemic) [Example 3, 1-[2-(6,8-dimethyl-2,3,4,5-tetrahydro-1H-1-benzazepin-1-yl)-2-oxoethyl]-3(1H-indazol-3-ylmethyl)-5-phenyl-1H-1,5-benzodiazepine-2,4(3H,5H)-dione], which Emax (human MC4R) is on record?
Answer: 47%

Question: And the EC50 (human MC4R)?
Answer: 60.3 nM

Question: Which Emax (human MC4R) does the source give for `COc1cccc2c1CCCCN2C(=O)CN1C(=O)C(Cc2n[nH]c3ccccc23)C(=O)N(c2ccccc2)c2ccccc21` (racemic) [Example 4, 3-(1H-indazol-3-ylmethyl)-1-[2-(6-methoxy-2,3,4,5-tetrahydro-1H-1-benzazepin-1-yl)-2-oxoethyl]-5-phenyl-1H-1,5-benzodiazepine-2,4(3H,5H)-dione] here?
Answer: 45%

Question: What about the EC50 (human MC4R) of the same molecule?
Answer: 178 nM

Question: Which results are given for `COc1ccc(N(C(=O)CN2C(=O)C(Cc3n[nH]c4ccccc34)(OC)C(=O)N(c3cccnc3)c3ccccc32)C(C)C)cc1` (racemic) [Example 8, 2-[3-(1H-indazol-3-ylmethyl)-3-methoxy-2,4-dioxo-5-pyridin-3-yl-2,3,4,5-tetrahydro-1H-1,5-benzodiazepin-1-yl]-N-isopropyl-N-(4-methoxyphenyl)acetamide]?
Answer: Emax (human MC4R): 74%; EC50 (human MC4R): 251 nM

Question: With `COc1ccc(N(C(=O)CN2C(=O)C(Cc3n[nH]c4ccccc34)(OC)C(=O)N(c3cccnc3)c3ccccc32)C(C)C)cc1` (single isomer, unassigned) [Example 9, 2-[3-(1H-indazol-3-ylmethyl)-3-methoxy-2,4-dioxo-5-pyridin-3-yl-2,3,4,5-tetrahydro-1H-1,5-benzodiazepin-1-yl]-N-isopropyl-N-(4-methoxyphenyl)acetamide] as the molecule, how does the EC50 (human MC4R) read?
Answer: 158 nM

Question: What about the “% of MSH” value (human MC4R) of the same molecule?
Answer: 68%

Question: What does the source list for `COc1ccc(N(C(=O)CN2C(=O)C(Cc3n[nH]c4ccccc34)(OC)C(=O)N(c3cccnc3)c3ccccc32)C(C)C)cc1` (single isomer, unassigned) [Example 10, 2-[3-(1H-indazol-3-ylmethyl)-3-methoxy-2,4-dioxo-5-pyridin-3-yl-2,3,4,5-tetrahydro-1H-1,5-benzodiazepin-1-yl]-N-isopropyl-N-(4-methoxyphenyl)acetamide]?
Answer: EC50 (human MC4R): 200 nM; % of MSH (human MC4R): 29%

Question: Which results are given for `COc1ccc2c(c1)CCCCN2C(=O)CN1C(=O)C(Cc2n[nH]c3ccccc23)C(=O)N(c2ccccc2)c2ccccc21` (centres unmarked) [Example 2, 3-(1H-indazol-3-ylmethyl)-1-[2-(7-methoxy-2,3,4,5-tetrahydro-1H-1-benzazepin-1-yl)-2-oxoethyl]-5-phenyl-1H-1,5-benzodiazepine-2,4(3H,5H)-dione]?
Answer: Emax (human MC4R): 42%; EC50 (human MC4R): 288 nM; melting point: 215 to 230 °C

Question: With `COc1cccc2c1CCCCN2C(=O)CN1C(=O)[C@@H](Cc2n[nH]c3ccccc23)C(=O)N(c2ccccc2)c2ccccc21` [Example 5, (3R)-3-(1H-indazol-3-ylmethyl)-1-[2-(6-methoxy-2,3,4,5-tetrahydro-1H-1-benzazepin-1-yl)-2-oxoethyl]-5-phenyl-1H-1,5-benzodiazepine-2,4(3H,5H)-dione] as the molecule, how does the Emax (human MC4R) read?
Answer: 44%

Question: And the EC50 (human MC4R)?
Answer: 282 nM

Question: And the melting point?
Answer: 186 to 214 °C

Question: What does the source list for `Cc1cc(C)c2c(c1)N(C(=O)CN1C(=O)[C@@H](Cc3n[nH]c4c3CCCC4)C(=O)N(c3ccccc3)c3ccccc31)CCCC2` [Example 6, (3R)-1-[2-(6,8-dimethyl-2,3,4,5-tetrahydro-1H-1-benzazepin-1-yl)-2-oxoethyl]-5-phenyl-3-(4,5,6,7-tetrahydro-1H-indazol-3-ylmethyl)-1H-1,5-benzodiazepine-2,4(3H,5H)-dione]?
Answer: Emax (human MC4R): 35%; EC50 (human MC4R): 257 nM

Question: Which Emax (human MC4R) does the source give for `COc1cccc2c1CCCCN2C(=O)CN1C(=O)[C@@H](Cc2n[nH]c3c2CCCC3)C(=O)N(c2ccccc2)c2ccccc21` [Example 7, (3R)-1-[2-(6-methoxy-2,3,4,5-tetrahydro-1H-1-benzazepin-1-yl)-2-oxoethyl]-5-phenyl-3-(4,5,6,7-tetrahydro-1H-indazol-3-ylmethyl)-1H-1,5-benzodiazepine-2,4(3H,5H)-dione] here?
Answer: 41%

Question: And the EC50 (human MC4R)?
Answer: 158 nM

Question: For `COC1(Cc2n[nH]c3ccccc23)C(=O)N(CC(=O)N2CCCCc3ccccc32)c2ccccc2N(c2ccccc2)C1=O` (centres unmarked) [Example 11, 3-(1H-indazol-3-ylmethyl)-3-methoxy-1-[2-oxo-2-(2,3,4,5-tetrahydro-1H-1-benzazepin-1-yl)ethyl]-5-phenyl-1H-1,5-benzodiazepine-2,4(3H,5H)-dione], which Emax (human MC4R) is on record?
Answer: 59%

Question: What about the EC50 (human MC4R) of the same molecule?
Answer: 112 nM

Question: Which results are given for `O=C(CN1C(=O)C(Cc2n[nH]c3cc(F)ccc23)C(=O)N(c2ccccc2)c2ccccc21)N1CCCCc2ccccc21` (centres unmarked) [Example 12, 3-[(6-fluoro-1H-indazol-3-yl)methyl]-1-[2-oxo-2-(2,3,4,5-tetrahydro-1H-1-benzazepin-1-yl)ethyl]-5-phenyl-1H-1,5-benzodiazepine-2,4(3H,5H)-dione]?
Answer: Emax (human MC4R): 52%; EC50 (human MC4R): 174 nM
